Source: ChEMBL document CHEMBL4038342, “Hydrophilic, Potent, and Selective 7-Substituted 2-Aminoquinolines as Improved Human Neuronal Nitric Oxide Synthase Inhibitors” (J Med Chem, 2017)

Tests used:
[1] = target: T1, Nitric oxide synthase 3 (Bos taurus, UniProt P29473); assay: Inhibition of recombinant bovine eNOS expressed in Escherichia coli using L-arginine as substrate after 30 secs by hemoglobin capture assay
T1 sequence (P29473 whole entry): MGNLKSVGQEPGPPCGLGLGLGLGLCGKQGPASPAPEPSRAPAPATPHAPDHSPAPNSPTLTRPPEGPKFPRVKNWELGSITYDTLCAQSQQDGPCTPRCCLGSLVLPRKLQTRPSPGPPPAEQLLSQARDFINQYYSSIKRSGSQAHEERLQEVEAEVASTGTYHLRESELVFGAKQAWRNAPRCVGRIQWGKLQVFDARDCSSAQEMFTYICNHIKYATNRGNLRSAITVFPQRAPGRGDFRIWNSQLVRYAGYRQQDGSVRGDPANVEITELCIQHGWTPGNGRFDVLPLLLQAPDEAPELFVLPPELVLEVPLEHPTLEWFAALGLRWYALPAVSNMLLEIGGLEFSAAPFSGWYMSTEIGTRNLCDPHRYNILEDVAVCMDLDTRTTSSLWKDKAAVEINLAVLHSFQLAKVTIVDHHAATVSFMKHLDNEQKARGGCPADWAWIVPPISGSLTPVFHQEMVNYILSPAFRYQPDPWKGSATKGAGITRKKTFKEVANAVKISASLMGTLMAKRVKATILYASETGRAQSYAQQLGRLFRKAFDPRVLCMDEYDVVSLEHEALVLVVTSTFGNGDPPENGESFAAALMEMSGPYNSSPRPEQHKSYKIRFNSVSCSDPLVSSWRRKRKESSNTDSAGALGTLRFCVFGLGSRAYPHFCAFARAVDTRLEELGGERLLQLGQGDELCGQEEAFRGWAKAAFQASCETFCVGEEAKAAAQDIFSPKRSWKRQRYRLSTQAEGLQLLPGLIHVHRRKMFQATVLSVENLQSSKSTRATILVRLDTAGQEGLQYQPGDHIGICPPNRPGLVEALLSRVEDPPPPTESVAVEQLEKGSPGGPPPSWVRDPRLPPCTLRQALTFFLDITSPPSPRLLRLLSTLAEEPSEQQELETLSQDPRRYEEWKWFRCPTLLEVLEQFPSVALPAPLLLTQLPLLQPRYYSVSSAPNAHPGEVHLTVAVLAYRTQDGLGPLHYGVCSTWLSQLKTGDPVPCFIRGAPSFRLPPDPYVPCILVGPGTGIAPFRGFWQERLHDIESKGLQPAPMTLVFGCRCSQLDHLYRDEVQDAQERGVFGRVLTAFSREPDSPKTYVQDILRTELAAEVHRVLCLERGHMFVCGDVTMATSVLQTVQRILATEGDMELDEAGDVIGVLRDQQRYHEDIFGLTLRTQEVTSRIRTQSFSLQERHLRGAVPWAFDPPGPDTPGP

[2] = target: Nitric oxide synthase 1 (Rattus norvegicus, UniProt P29476)
Description: Inhibition of recombinant rat nNOS expressed in Escherichia coli using L-arginine as substrate after 30 secs by hemoglobin capture assay

[3] = target: T2, Nitric oxide synthase, inducible (Mus musculus, UniProt P29477); assay: Inhibition of recombinant mouse macrophage iNOS expressed in Escherichia coli using L-arginine as substrate after 30 secs by hemoglobin capture assay
T2 sequence (P29477 whole entry): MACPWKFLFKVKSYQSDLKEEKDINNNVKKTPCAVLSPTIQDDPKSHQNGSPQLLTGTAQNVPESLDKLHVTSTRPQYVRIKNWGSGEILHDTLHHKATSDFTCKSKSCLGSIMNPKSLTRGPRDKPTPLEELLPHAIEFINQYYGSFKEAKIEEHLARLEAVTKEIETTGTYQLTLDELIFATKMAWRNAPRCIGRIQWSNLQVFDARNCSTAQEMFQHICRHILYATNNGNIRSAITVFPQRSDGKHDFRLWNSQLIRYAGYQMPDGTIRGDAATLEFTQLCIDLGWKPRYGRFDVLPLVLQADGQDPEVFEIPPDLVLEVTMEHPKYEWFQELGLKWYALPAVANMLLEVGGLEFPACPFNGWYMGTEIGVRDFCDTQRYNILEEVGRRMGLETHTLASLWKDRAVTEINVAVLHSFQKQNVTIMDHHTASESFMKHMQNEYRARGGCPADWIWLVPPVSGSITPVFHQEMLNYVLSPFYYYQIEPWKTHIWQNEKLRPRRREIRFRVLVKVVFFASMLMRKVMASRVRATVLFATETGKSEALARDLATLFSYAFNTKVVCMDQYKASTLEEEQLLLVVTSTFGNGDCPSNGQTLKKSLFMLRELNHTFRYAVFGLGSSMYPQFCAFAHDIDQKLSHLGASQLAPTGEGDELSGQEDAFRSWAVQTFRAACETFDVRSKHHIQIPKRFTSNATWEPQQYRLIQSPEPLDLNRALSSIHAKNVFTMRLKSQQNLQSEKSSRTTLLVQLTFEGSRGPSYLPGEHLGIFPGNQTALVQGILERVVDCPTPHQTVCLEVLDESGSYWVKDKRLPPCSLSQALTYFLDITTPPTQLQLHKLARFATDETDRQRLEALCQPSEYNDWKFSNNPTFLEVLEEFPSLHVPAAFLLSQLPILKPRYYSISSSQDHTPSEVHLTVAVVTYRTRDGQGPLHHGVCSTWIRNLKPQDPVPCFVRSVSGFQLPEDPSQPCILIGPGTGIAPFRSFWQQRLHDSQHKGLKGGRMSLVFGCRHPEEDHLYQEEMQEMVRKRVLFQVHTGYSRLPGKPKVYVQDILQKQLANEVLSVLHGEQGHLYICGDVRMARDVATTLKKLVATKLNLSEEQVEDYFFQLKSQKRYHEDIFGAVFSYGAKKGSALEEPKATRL

[4] = target: Nitric oxide synthase 1 (Homo sapiens, UniProt P29475)
Description: Inhibition of recombinant human nNOS expressed in Escherichia coli using L-arginine as substrate after 30 secs by hemoglobin capture assay

[5] = Permeability from apical to basolateral side in human Caco2 cells assessed as drug recovery at 10 uM after 2 hrs by LC/MS/MS analysis; format: ADME, cell-based; conditions: caco-2, 2 h
[6] = Permeability from basolateral to apical side in human Caco2 cells assessed as drug recovery at 10 uM after 2 hrs by LC/MS/MS analysis; format: ADME, cell-based; conditions: caco-2, 2 h

Chain of Nitric oxide synthase 1 (Rattus norvegicus, UniProt P29476) (P29476 whole entry): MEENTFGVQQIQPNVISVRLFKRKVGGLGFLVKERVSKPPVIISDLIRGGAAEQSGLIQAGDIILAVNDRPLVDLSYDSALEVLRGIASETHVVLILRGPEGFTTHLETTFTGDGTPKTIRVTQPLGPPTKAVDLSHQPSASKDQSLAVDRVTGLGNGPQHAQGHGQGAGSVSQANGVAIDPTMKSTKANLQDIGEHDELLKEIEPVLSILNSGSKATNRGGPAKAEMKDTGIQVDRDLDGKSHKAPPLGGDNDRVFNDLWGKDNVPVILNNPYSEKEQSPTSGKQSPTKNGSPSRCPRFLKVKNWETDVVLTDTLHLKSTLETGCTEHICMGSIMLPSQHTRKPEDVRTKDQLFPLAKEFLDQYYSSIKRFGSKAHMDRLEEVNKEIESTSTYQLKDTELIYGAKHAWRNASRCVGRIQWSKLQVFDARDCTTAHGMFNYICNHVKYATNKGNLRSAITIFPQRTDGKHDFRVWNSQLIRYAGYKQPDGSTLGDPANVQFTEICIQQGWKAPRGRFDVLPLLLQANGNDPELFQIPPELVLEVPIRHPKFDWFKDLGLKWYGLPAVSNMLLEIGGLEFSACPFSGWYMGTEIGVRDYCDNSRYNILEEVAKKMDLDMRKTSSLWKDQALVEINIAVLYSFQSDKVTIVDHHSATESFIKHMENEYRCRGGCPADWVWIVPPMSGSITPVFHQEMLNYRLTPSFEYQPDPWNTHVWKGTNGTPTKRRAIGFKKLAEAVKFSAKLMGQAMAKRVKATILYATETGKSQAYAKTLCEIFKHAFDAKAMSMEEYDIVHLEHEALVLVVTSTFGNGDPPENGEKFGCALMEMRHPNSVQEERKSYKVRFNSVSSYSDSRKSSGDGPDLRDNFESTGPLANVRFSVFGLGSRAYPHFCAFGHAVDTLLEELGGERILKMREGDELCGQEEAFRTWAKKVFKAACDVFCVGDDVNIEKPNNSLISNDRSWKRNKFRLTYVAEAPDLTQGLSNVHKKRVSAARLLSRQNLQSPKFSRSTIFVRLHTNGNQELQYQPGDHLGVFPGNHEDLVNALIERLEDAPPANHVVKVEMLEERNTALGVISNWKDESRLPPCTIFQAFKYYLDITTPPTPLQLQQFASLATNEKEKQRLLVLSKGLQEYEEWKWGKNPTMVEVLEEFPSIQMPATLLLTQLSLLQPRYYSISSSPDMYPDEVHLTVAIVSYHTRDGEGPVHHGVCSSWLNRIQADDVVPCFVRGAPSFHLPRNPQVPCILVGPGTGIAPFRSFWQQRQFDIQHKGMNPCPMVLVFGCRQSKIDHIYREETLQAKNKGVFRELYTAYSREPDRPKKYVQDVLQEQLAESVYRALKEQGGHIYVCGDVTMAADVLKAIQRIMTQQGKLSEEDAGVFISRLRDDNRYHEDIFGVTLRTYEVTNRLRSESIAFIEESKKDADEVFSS
Chain of Nitric oxide synthase 1 (Homo sapiens, UniProt P29475) (P29475 whole entry): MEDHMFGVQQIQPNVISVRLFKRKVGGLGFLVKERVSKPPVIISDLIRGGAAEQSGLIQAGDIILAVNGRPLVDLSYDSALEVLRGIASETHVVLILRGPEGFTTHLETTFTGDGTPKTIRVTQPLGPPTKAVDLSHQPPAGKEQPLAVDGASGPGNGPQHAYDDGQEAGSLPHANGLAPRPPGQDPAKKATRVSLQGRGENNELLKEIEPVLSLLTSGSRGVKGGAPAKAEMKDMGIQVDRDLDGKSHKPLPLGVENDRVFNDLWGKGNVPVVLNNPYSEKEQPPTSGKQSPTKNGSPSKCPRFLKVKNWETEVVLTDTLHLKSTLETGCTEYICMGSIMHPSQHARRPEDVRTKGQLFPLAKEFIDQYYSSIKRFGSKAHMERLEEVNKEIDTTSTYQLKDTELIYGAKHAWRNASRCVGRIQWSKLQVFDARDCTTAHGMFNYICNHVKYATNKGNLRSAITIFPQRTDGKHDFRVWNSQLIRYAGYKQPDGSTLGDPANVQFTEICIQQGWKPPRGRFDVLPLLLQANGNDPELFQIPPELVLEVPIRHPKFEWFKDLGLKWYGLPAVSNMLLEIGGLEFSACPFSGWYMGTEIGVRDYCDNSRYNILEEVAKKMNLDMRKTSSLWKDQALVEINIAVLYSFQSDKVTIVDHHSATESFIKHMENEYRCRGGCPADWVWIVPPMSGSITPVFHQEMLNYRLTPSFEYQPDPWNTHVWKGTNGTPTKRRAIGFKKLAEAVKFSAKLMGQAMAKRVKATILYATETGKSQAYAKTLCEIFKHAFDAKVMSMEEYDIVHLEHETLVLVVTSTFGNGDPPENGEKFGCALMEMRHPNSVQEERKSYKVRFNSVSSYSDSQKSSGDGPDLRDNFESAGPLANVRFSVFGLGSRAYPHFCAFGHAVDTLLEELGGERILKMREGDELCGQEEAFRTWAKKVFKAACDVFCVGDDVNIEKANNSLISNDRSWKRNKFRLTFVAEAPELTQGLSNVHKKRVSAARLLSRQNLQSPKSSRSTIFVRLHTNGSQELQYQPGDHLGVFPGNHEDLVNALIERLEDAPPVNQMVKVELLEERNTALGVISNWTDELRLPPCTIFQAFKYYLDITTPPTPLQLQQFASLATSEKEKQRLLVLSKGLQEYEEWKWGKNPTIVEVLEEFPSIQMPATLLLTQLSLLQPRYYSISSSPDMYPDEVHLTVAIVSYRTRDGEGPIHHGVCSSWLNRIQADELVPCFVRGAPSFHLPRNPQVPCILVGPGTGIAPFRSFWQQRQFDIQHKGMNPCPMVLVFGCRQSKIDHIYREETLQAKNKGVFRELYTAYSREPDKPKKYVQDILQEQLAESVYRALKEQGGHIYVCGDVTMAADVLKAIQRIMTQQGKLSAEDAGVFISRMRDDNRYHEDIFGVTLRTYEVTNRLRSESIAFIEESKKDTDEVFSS

Compound `CN(C)c1ccc(CNCc2ccc3ccc(N)nc3c2)cc1` has a Ki [1] of 8.42 µM, a Ki [2] of 0.522 µM and a Ki [3] of 42.2 µM.

`CN(C)c1cccc(CNCc2ccc3ccc(N)nc3c2)c1` gave a Ki [4] of 1.02 µM, a Ki [1] of 6.53 µM and a Ki [2] of 0.421 µM. For the same compound, the Ki [3] was 30.1 µM.

`COc1ccncc1CCCNCc1ccc2ccc(N)nc2c1` showed a Ki [3] of 17.2 µM.

For `Cc1ccncc1CCCNCc1ccc2ccc(N)nc2c1`, the Ki [4] was 0.13 µM, the Ki [1] was 0.562 µM and the Ki [3] was 13.8 µM.

For `Cc1cc(CCNCc2ccc3c(C)cc(N)nc3c2)ccc1C#N`, the Drug recovery [5] was 58.5% and the Drug recovery [6] was 83%.

`Nc1ccc2ccc(CNCCCc3cccnc3)cc2n1` gave a Ki [4] of 0.108 µM, a Ki [1] of 1.04 µM and a Ki [2] of 0.038 µM.
